# Assay results from patent EP1100483B1, “GLUCOCORTICOID-SELECTIVE ANTI-INFLAMMATORY AGENTS” (Abbott Laboratories, priority 1998, dated 2000).
# Molecular target: T1, human progesterone receptor-A [PRA] isoform (Homo sapiens, UniProt P06401)
# T1 construct: purchased Ligand Pharmaceuticals (San Diego, CA); host or cells: insect SF21 cells (baculovirus)
# T1 sequence (P06401 1-769 isoform P06401-2): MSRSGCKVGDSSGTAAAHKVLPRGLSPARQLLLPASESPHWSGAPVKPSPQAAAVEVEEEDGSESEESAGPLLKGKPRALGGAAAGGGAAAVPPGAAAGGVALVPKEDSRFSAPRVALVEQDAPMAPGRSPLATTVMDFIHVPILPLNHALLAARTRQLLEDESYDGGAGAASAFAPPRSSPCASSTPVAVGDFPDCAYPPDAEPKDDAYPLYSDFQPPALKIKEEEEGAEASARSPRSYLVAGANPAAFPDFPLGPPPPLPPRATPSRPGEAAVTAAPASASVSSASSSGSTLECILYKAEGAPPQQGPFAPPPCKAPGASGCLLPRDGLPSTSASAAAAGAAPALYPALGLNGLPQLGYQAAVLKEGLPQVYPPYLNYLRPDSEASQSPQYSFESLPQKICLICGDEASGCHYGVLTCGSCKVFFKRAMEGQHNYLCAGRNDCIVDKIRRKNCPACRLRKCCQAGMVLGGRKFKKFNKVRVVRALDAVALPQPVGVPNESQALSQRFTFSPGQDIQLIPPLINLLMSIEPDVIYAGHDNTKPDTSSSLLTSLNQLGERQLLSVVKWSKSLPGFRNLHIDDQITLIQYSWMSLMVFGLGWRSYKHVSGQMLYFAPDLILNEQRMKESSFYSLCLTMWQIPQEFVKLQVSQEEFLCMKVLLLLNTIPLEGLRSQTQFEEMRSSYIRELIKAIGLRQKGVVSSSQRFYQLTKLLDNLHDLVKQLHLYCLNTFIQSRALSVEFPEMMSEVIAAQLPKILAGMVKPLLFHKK
# Assay: progesterone receptor cytosol (PR) binding assay, [3H]-progesterone competition
# Details: [3H]Prog ~0.8 nM, 4 °C overnight, Cheng-Prusoff
# Excerpt: For glucocorticoid receptor (OR) cytosol binding assays, the procedure described in Anal. Biochem. 1970, 37, 244-252, hereby incorporated by reference, was used. Briefly, cytosol preparations of human glucocorticoid receptor-α [GRX] isoform and human progesterone receptor-A [PRA] isoform were obtained from Ligand Pharmaceuticals (San Diego, CA). Both receptor cDNAs were cloned into baculovirus expression vectors and expressed in insect SF21 cells. [^3H]-dexamethasone (Dex, specific activity 82-86 Ci/mmole) and [^3H]-progesterone (Prog, specific activity 97-102 Ci/mmol) were purchased from Amersham Life Sciences (Arlington Heights, IL). Glass fiber type C multiscreen MAFC NOB plates were from Millipore ( Burlington, MA). Hydroxyapatide Bio-Gel HTP gel was obtained from Bio-Rad Laboratories (Hercules. CA). Tris(hydroxymethyl)aminomethane (Tris), ethylenediaminetetraacetic acid (EDTA), glycerol, dithiothreitol (DTT) and sodium moylybdate were obtained from Sigma Chemicals (St. Louis, MO). Microscint-20 scintillation fluid was obtained from Packard Instrument (Meriden, CT).
# Stock solutions (32 mM) of compounds were prepared in dimethylsulfoxide (DMSO), and 50X solutions of test compounds were prepared from the 32 mM solution with a 50:50 mixture of DMSO/ethanol. The 50X solution was then diluted with binding buffer that contained 10 mM Tri-HCl, 1.5 mM EDTA, 10% glycerol, 1 mM DTT, 20 mM sodium molybdate. pH 7.5 at 4 °C. 1% DMSO/ethanol was also present in the binding assay.
# For progesterone receptor cytosol (PR) binding assays, [^3H]Prog (~36,000 dpm (∼0.8 nM)), PRA cytosol (~40 µg protein), test compounds and binding buffer were mixed in a total volume of 200 µL and incubated at 4 °C overnight in a plate shaker. Specific binding was defined as the difference between binding of [^3H]Prog in the absence and in the presence of 3 µM unlabeled Prog.
# After an overnight incubation, 50 µL of hydroxyapatite (25 % weight/volume) slurry were added to each well and plates were incubated for 10 min at 4 °C in a plate shaker. Plates were suctioned with a Millipore vacuum manifold and each well was rinsed with 300 µL of ice-cold binding buffer. A 250 µL aliquot of Packard Microscint-20 was added to each well and the wells were shaken at room temperature for 20 minutes. The amount of radioactivity was determined with a Packard TopCount plate reader.
# The Ki of test compounds was determined using the Cheng-Prusoff equation Ki =IC50/(1+[L*]/[KL]) where L* is the concentration of radioligand and KL is the dissociation constant of the radioligand determined from saturation analysis. For GRX, KL was ∼1.5 nM, and for PRA, KL was ~4.5 nM.
row,SMILES,Ki
1,"CN(C)c1ccc(C(c2ccc(N(C)C)cc2)c2cc([N+](=O)[O-])ccc2Cl)cc1 [Example 1, 4',4"" bis(dimethylamino)-2-chloro-5-nitrotriphenylmethane]",> 10000 nM
2,"CNc1ccc(C(c2ccc(NC)cc2)c2cc([N+](=O)[O-])ccc2Cl)cc1 [Example 23, 4',4"" bis(methylamino)-2-chloro-5-nitrotriphenylmethane]",624 nM
3,"CN(C)c1ccc(C(c2ccc(N(C)C)cc2)c2cc(Cl)ccc2Cl)cc1 [Example 24, 4',4"" bis(dimethylamino)-2,5-dichlorotriphenylmethane]",2590 nM
4,"CNc1ccc(C(c2ccc(NC)cc2)c2cc(Cl)ccc2Cl)cc1 [Example 27, 4',4"" bis(methylamino)-2,5-dichlorotriphenylmethane]",318 nM
5,"CC(=O)OCCN(C)c1ccc(C(c2ccc(N(C)CCOC(C)=O)cc2)c2cc([N+](=O)[O-])ccc2Cl)cc1 [Example 31, 4',4"" bis(N-(2-acetoxyethyl) N-methylamino)-2-chloro-5-nitrotriphenylmethane]",2680 nM
6,"CN(CCO)c1ccc(C(c2ccc(N(C)CCO)cc2)c2cc([N+](=O)[O-])ccc2Cl)cc1 [Example 32, 4',4"" bis(N-(2-hydroxyethyl) N-methylamino)-2-chloro-5-nitrotriphenylmethane]",536 nM
7,"O=[N+]([O-])c1ccc(Cl)c(C(c2ccc(NCc3ccccc3)cc2)c2ccc(NCc3ccccc3)cc2)c1 [Example 36, 4',4"" bis(N-benzylamino)-2-chloro-5-nitrotriphenylmethane]",2590 nM
8,"CNc1ccc(C(c2ccc(N(C)C)cc2)c2cc([N+](=O)[O-])ccc2Cl)cc1 (stereo not shown) [Example 39, 4'-dimethylamino-4""-methylamino-2-chloro-5-nitrotriphenylmethane]",510 nM
9,"CN(C)c1ccc(C(c2ccc(N(C)CCO)cc2)c2cc([N+](=O)[O-])ccc2Cl)cc1 (stereo not shown) [Example 42, 4'-dimethylamino-4""-(N-methyl-N-(2-hydroxyethyl)amino)-2-chloro-5-nitrotriphenylmethane]",187 nM
10,"CNc1ccc(C(c2ccc(N(C)CCOC(C)=O)cc2)c2cc([N+](=O)[O-])ccc2Cl)cc1 (stereo not shown) [Example 49, 4'-methylamino-4""-(N-(2-acetoxyethyl)-N-methylamino)-2-chloro-5-nitrotriphenylmethane]",241 nM
11,"CC(=O)OCCN(C)c1ccc(C(c2ccc(N(C)C)cc2)c2cc([N+](=O)[O-])ccc2Cl)cc1 (stereo not shown) [Example 51, 4'-dimethylamino-4""-(N-methyl-N-(2-acetoxyethyl)amino)-2-chloro-5-nitrotriphenylmethane]",1080 nM
12,"CN(C)c1ccc(C(Oc2ccccc2)c2cc([N+](=O)[O-])ccc2Cl)cc1 (stereo not shown) [Example 52, phenyl-[(4'-dimethylaminophenyl)-(2-chloro-5-nitrophenyl)methyl] ether]",698 nM
13,"CN(C)c1ccc(C(Sc2ccccc2)c2cc([N+](=O)[O-])ccc2Cl)cc1 (stereo not shown) [Example 54, phenyl-[(4'-dimethylaminophenyl)-(2-chloro-5-nitrophenyl)methyl]thioether]",2590 nM
